Experimental data: the NIST ThermoML archive (doi:10.1016/j.tca.2015.06.017)
± gives the expanded uncertainty stated by the source.

Experiment: xn = mol fraction of the nth substance listed
Settings: Liquid, Vibrating tube method

CC(C)(C)Cl [2-chloro-2-methylpropane] + CCCCCCC
mass density [kg/m3]
Settings	283.15 K	293.15 K
100 kPa, x2 = 0.0554	842.44 ± 0.24	830.68 ± 0.24
100 kPa, x2 = 0.1017	832.31 ± 0.24	820.81 ± 0.24
100 kPa, x2 = 0.2004	811.94 ± 0.24	800.91 ± 0.24
100 kPa, x2 = 0.3016	792.65 ± 0.24	782.03 ± 0.24
100 kPa, x2 = 0.4097	773.66 ± 0.24	763.43 ± 0.24
100 kPa, x2 = 0.498	759.27 ± 0.24	749.33 ± 0.24
100 kPa, x2 = 0.5983	744.02 ± 0.24	734.42 ± 0.24
100 kPa, x2 = 0.7017	729.43 ± 0.24	720.16 ± 0.25
100 kPa, x2 = 0.7995	716.55 ± 0.25	707.61 ± 0.25
100 kPa, x2 = 0.9032	703.79 ± 0.25	695.15 ± 0.25
100 kPa, x2 = 0.9482	698.49 ± 0.25	689.98 ± 0.25
2000 kPa, x2 = 0.0554	844.68 ± 0.25	833.14 ± 0.25
2000 kPa, x2 = 0.1017	834.48 ± 0.25	823.24 ± 0.25
2000 kPa, x2 = 0.2004	814.1 ± 0.25	803.29 ± 0.25
2000 kPa, x2 = 0.3016	794.78 ± 0.26	784.22 ± 0.26
2000 kPa, x2 = 0.4097	775.6 ± 0.26	765.58 ± 0.26
2000 kPa, x2 = 0.498	761.33 ± 0.26	751.59 ± 0.26
2000 kPa, x2 = 0.5983	745.93 ± 0.26	736.51 ± 0.26
2000 kPa, x2 = 0.7017	731.35 ± 0.26	722.23 ± 0.27
2000 kPa, x2 = 0.7995	718.47 ± 0.27	709.61 ± 0.27
2000 kPa, x2 = 0.9032	705.72 ± 0.27	697.14 ± 0.27
2000 kPa, x2 = 0.9482	700.41 ± 0.27	691.94 ± 0.27
5000 kPa, x2 = 0.0554	848.13 ± 0.27	836.88 ± 0.27
5000 kPa, x2 = 0.1017	837.91 ± 0.27	826.9 ± 0.27
5000 kPa, x2 = 0.2004	817.4 ± 0.27	806.74 ± 0.28
5000 kPa, x2 = 0.3016	797.97 ± 0.28	787.77 ± 0.28
5000 kPa, x2 = 0.4097	778.78 ± 0.28	769.03 ± 0.28
5000 kPa, x2 = 0.498	764.17 ± 0.29	754.81 ± 0.29
5000 kPa, x2 = 0.5983	748.83 ± 0.29	739.75 ± 0.29
5000 kPa, x2 = 0.7017	734.11 ± 0.29	725.28 ± 0.3
5000 kPa, x2 = 0.7995	721.17 ± 0.3	712.57 ± 0.3
5000 kPa, x2 = 0.9032	708.35 ± 0.3	700.04 ± 0.3
5000 kPa, x2 = 0.9482	703.02 ± 0.3	694.81 ± 0.31
7000 kPa, x2 = 0.0554	850.47 ± 0.28	839.29 ± 0.28
7000 kPa, x2 = 0.1017	840.22 ± 0.28	829.3 ± 0.28
7000 kPa, x2 = 0.2004	819.61 ± 0.29	809.03 ± 0.29
7000 kPa, x2 = 0.3016	800.1 ± 0.29	789.87 ± 0.3
7000 kPa, x2 = 0.4097	780.74 ± 0.3	771.15 ± 0.3
7000 kPa, x2 = 0.498	766.3 ± 0.3	756.85 ± 0.31
7000 kPa, x2 = 0.5983	750.75 ± 0.31	741.66 ± 0.31
7000 kPa, x2 = 0.7017	736.02 ± 0.31	727.16 ± 0.32
7000 kPa, x2 = 0.7995	722.99 ± 0.32	714.5 ± 0.32
7000 kPa, x2 = 0.9032	710.1 ± 0.32	701.82 ± 0.33
7000 kPa, x2 = 0.9482	704.76 ± 0.32	696.6 ± 0.33
10000 kPa, x2 = 0.0554	853.75 ± 0.29	842.85 ± 0.3
10000 kPa, x2 = 0.1017	843.46 ± 0.3	832.92 ± 0.3
10000 kPa, x2 = 0.2004	822.51 ± 0.31	812.44 ± 0.31
10000 kPa, x2 = 0.3016	803.09 ± 0.31	793.26 ± 0.32
10000 kPa, x2 = 0.4097	783.69 ± 0.32	774.21 ± 0.33
10000 kPa, x2 = 0.498	769.05 ± 0.33	759.84 ± 0.33
10000 kPa, x2 = 0.5983	753.62 ± 0.34	744.65 ± 0.34
10000 kPa, x2 = 0.7017	738.75 ± 0.34	730.1 ± 0.35
10000 kPa, x2 = 0.7995	725.53 ± 0.35	717.31 ± 0.35
10000 kPa, x2 = 0.9032	712.59 ± 0.36	704.57 ± 0.36
10000 kPa, x2 = 0.9482	707.21 ± 0.36	699.31 ± 0.36
20000 kPa, x2 = 0.0554	864 ± 0.34	853.69 ± 0.35
20000 kPa, x2 = 0.1017	853.55 ± 0.35	843.51 ± 0.36
20000 kPa, x2 = 0.2004	832.47 ± 0.37	822.74 ± 0.37
20000 kPa, x2 = 0.3016	812.54 ± 0.38	803.2 ± 0.39
20000 kPa, x2 = 0.4097	792.93 ± 0.4	783.9 ± 0.41
20000 kPa, x2 = 0.498	778.04 ± 0.41	–
20000 kPa, x2 = 0.5983	762.35 ± 0.42	–
20000 kPa, x2 = 0.7017	747.22 ± 0.44	–
20000 kPa, x2 = 0.7995	733.81 ± 0.45	–
20000 kPa, x2 = 0.9032	720.64 ± 0.46	–
20000 kPa, x2 = 0.9482	715.18 ± 0.46	–
30000 kPa, x2 = 0.0554	873.3 ± 0.38	–
30000 kPa, x2 = 0.1017	862.73 ± 0.39	–
30000 kPa, x2 = 0.2004	841.24 ± 0.42	–
30000 kPa, x2 = 0.3016	821.19 ± 0.44	–
30000 kPa, x2 = 0.4097	801.28 ± 0.47	–
30000 kPa, x2 = 0.498	786.13 ± 0.49	–
30000 kPa, x2 = 0.5983	770.17 ± 0.51	–
30000 kPa, x2 = 0.7017	754.83 ± 0.52	–
30000 kPa, x2 = 0.7995	741.14 ± 0.54	–
30000 kPa, x2 = 0.9032	727.83 ± 0.56	–
30000 kPa, x2 = 0.9482	722.3 ± 0.57	–
40000 kPa, x2 = 0.0554	881.82 ± 0.42	–
40000 kPa, x2 = 0.1017	870.96 ± 0.43	–
40000 kPa, x2 = 0.2004	849.41 ± 0.47	–
40000 kPa, x2 = 0.3016	829.08 ± 0.5	–
40000 kPa, x2 = 0.4097	808.91 ± 0.53	–
40000 kPa, x2 = 0.498	793.67 ± 0.56	–
40000 kPa, x2 = 0.5983	777.41 ± 0.58	–
40000 kPa, x2 = 0.7017	761.79 ± 0.61	–
40000 kPa, x2 = 0.7995	747.96 ± 0.63	–
40000 kPa, x2 = 0.9032	734.49 ± 0.65	–
40000 kPa, x2 = 0.9482	728.9 ± 0.66	–
50000 kPa, x2 = 0.0554	889.56 ± 0.45	–
50000 kPa, x2 = 0.1017	878.68 ± 0.47	–
50000 kPa, x2 = 0.2004	856.76 ± 0.51	–
50000 kPa, x2 = 0.3016	836.39 ± 0.55	–
50000 kPa, x2 = 0.4097	815.92 ± 0.59	–
50000 kPa, x2 = 0.498	800.51 ± 0.62	–
50000 kPa, x2 = 0.5983	784.09 ± 0.66	–
50000 kPa, x2 = 0.7017	768.34 ± 0.69	–
50000 kPa, x2 = 0.7995	754.42 ± 0.71	–
50000 kPa, x2 = 0.9032	740.62 ± 0.74	–
50000 kPa, x2 = 0.9482	734.97 ± 0.75	–
60000 kPa, x2 = 0.0554	896.85 ± 0.47	–
60000 kPa, x2 = 0.1017	885.94 ± 0.5	–
60000 kPa, x2 = 0.2004	863.93 ± 0.55	–
60000 kPa, x2 = 0.3016	843.17 ± 0.6	–
60000 kPa, x2 = 0.4097	822.77 ± 0.65	–
60000 kPa, x2 = 0.498	807.05 ± 0.68	–
60000 kPa, x2 = 0.5983	790.42 ± 0.72	–
60000 kPa, x2 = 0.7017	774.43 ± 0.76	–
60000 kPa, x2 = 0.7995	760.28 ± 0.8	–
60000 kPa, x2 = 0.9032	746.42 ± 0.83	–
60000 kPa, x2 = 0.9482	740.73 ± 0.84	–
65000 kPa, x2 = 0.0554	900.21 ± 0.48	–
65000 kPa, x2 = 0.1017	889.29 ± 0.51	–
65000 kPa, x2 = 0.2004	867.33 ± 0.57	–
65000 kPa, x2 = 0.3016	846.38 ± 0.62	–
65000 kPa, x2 = 0.4097	825.84 ± 0.67	–
65000 kPa, x2 = 0.498	809.97 ± 0.71	–
65000 kPa, x2 = 0.5983	793.31 ± 0.76	–
65000 kPa, x2 = 0.7017	777.27 ± 0.8	–
65000 kPa, x2 = 0.7995	763.11 ± 0.83	–
65000 kPa, x2 = 0.9032	749.1 ± 0.87	–
65000 kPa, x2 = 0.9482	743.43 ± 0.89	–
